Patent publication US20220233549A1, “METHOD FOR ALPHAVIRUS INHIBITION” (priority 2019, published 2022)
pEC50: −log10 of the molar value.

Legend:
Format in all cases: cell-based
ONNV (SG-650) = experiment: Activity of Example 1 against other alphaviruses: ONNV
VEEV (ZPC) = experiment: microbe, parasite or virus in culture; settings: Venezuelan equine encephalitis virus
BK Polyomavirus = experiment: Activity of Example 1 against non-alphaviruses: BK Polyomavirus; settings: Betapolyomavirus hominis
Influenza = experiment: Activity of Example 1 against non-alphaviruses: Influenza
Vaccinia = experiment: Activity of Example 1 against non-alphaviruses: Vaccinia; settings: Orthopoxvirus vaccinia
MAYV = experiment: Activity of Example 1 against other alphaviruses: MAYV
Dengue = experiment: Activity of Example 1 against non-alphaviruses: Dengue; settings: Dengue virus
SINV (TR-339) = experiment: organism not typed
CHIKV 181/clone25 = experiment: CHIKV cytopathic effect (CPE) protection assay in Vero cells; settings: Chikungunya virus; CHIKV 181/clone25, Vero cells, MOI=0.01, 48 hrs, protection from CPE (crystal violet, absorbance 595nm)

SMILES | pEC50 (CHIKV 181/clone25) | also measured
CN1C(=O)C(CC(=O)NCC2CCCCC2)Sc2ncccc21 (stereo not shown) [Example 1, N-(cyclohexylmethyl)-2-(1-methyl-2-oxo-2,3-dihydro-1H-pyrido[2,3-b][1,4]thiazin-3-yl)acetamide] | > 5.00 | pEC50 (ONNV (SG-650)): > 5.00; pEC50 (VEEV (ZPC)): > 5.00; pEC50 (BK Polyomavirus): < 4.00; pEC50 (Influenza): < 4.00; pEC50 (Vaccinia): < 4.00; pEC50 (MAYV): 4.30 to 5.00; pEC50 (Dengue): < 4.00; pEC50 (SINV (TR-339)): < 4.00
O=C(CC1Sc2ncccc2NC1=O)NCC1CC=CCC1 (stereo not shown) [Example 86, N-(cyclohex-3-en-1-ylmethyl)-2-(2-oxo-2,3-dihydro-1H-pyrido[2,3-b][1,4]thiazin-3-yl)acetamide] | > 5.00 | –
CCCCNC(=O)CC1Sc2ncccc2NC1=O (stereo not shown) [Example 70, N-butyl-2-(2-oxo-2,3-dihydro-1H-pyrido[2,3-b][1,4]thiazin-3-yl)acetamide] | 4.00 to 4.30 | –
CCN1C(=O)C(CC(=O)NCC2CC2)Sc2ncccc21 (stereo not shown) [Example 46, N-(cyclopropylmethyl)-2-(1-ethyl-2-oxo-2,3-dihydro-1H-pyrido[2,3-b][1,4]thiazin-3-yl)acetamide] | < 4.00 | –
CCN1C(=O)C(CC(=O)NCc2ccccc2)Sc2ncccc21 (stereo not shown) [Example 43, N-benzyl-2-(1-ethyl-2-oxo-2,3-dihydro-1H-pyrido[2,3-b][1,4]thiazin-3-yl)acetamide] | < 4.00 | –
O=C(CC1Sc2ccccc2NC1=O)NCC1CCCCC1 (stereo not shown) [Example 59, N-(cyclohexylmethyl)-2-(3-oxo-3,4-dihydro-2H-benzo[b][1,4]thiazin-2-yl)acetamide] | < 4.00 | –
O=C(CC1Sc2ncc(Br)cc2NC1=O)NCC1CCCCC1 (stereo not shown) [Example 87, 2-(7-bromo-2-oxo-2,3-dihydro-1H-pyrido[2,3-b][1,4]thiazin-3-yl)-N-(cyclohexylmethyl)acetamide] | 4.30 to 5.00 | –
O=C(CC1Sc2ncccc2NC1=O)NCCc1ccc(F)cc1 (stereo not shown) [Example 57, N-(4-fluorophenethyl)-2-(2-oxo-2,3-dihydro-1H-pyrido[2,3-b][1,4]thiazin-3-yl)acetamide] | 4.30 to 5.00 | –
CCN1C(=O)C(CC(=O)NCC2CCCCC2)Sc2ncccc21 (stereo not shown) [Example 44, N-(cyclohexylmethyl)-2-(1-ethyl-2-oxo-2,3-dihydro-1H-pyrido[2,3-b][1,4]thiazin-3-yl)acetamide] | 4.30 to 5.00 | –
O=C(CC1Sc2ccncc2NC1=O)NCC1CCCCC1 (stereo not shown) [Example 84, N-(cyclohexylmethyl)-2-(3-oxo-3,4-dihydro-2H-pyrido[4,3-b][1,4]thiazin-2-yl)acetamide] | < 4.00 | –
O=C(CC1Sc2ncccc2NC1=O)NCC1CCOCC1 (stereo not shown) [Example 48, 2-(2-oxo-2,3-dihydro-1H-pyrido[2,3-b][1,4]thiazin-3-yl)-N-((tetrahydro-2H-pyran-4-yl)methyl)acetamide] | < 4.00 | –
CN1C(=O)C(CC(=O)NCc2ccco2)Sc2ncccc21 (stereo not shown) [Example 30, N-(furan-2-ylmethyl)-2-(1-methyl-2-oxo-2,3-dihydro-1H-pyrido[2,3-b][1,4]thiazin-3-yl)acetamide] | < 4.00 | –
O=C(CC1Sc2ncccc2NC1=O)NCC1CCC(F)(F)CC1 (stereo not shown) [Example 60, N-((4,4-difluorocyclohexyl)methyl)-2-(2-oxo-2,3-dihydro-1H-pyrido[2,3-b][1,4]thiazin-3-yl)acetamide] | 4.30 to 5.00 | –
O=C(CC1Sc2ncccc2NC1=O)NCC1CCCCCC1 (stereo not shown) [Example 62, N-(cycloheptylmethyl)-2-(2-oxo-2,3-dihydro-1H-pyrido[2,3-b][1,4]thiazin-3-yl)acetamide] | 4.30 to 5.00 | –
CC(C)NC(=O)CC1Sc2ncccc2N(C)C1=O (stereo not shown) [Example 10, N-isopropyl-2-(1-methyl-2-oxo-2,3-dihydro-1H-pyrido[2,3-b][1,4]thiazin-3-yl)acetamide] | < 4.00 | –
O=C(CC1Sc2ncccc2NC1=O)NCc1cc(F)cc(F)c1 (stereo not shown) [Example 52, N-(3,5-difluorobenzyl)-2-(2-oxo-2,3-dihydro-1H-pyrido[2,3-b][1,4]thiazin-3-yl)acetamide] | < 4.00 | –
O=C(CC1Sc2ncccc2NC1=O)NCC1=CCCCC1 (stereo not shown) [Example 85, N-(cyclohex-1-en-1-ylmethyl)-2-(2-oxo-2,3-dihydro-1H-pyrido[2,3-b][1,4]thiazin-3-yl)acetamide] | 4.30 to 5.00 | –
